Assay [1] can be described thus: Antioxidant activity assessed as DPPH radical scavenging activity incubated for 30 mins under dark condition relative to control. In kind it is functional. Further details: concentration or dose not given beside the values. Background: Loss of DPPH colour is used to gauge radical scavenging.
Assay [2] can be described thus: Antioxidant activity assessed as bleomycin-Fe2+-induced DNA degradation by measuring absorbance at 0.1 mg/ml after 1 hr. In kind it is functional.
Assay [3] deals with A549. As to the kind of experiment: Cytotoxicity against human A549 cells assessed as reduction in cell viability measured after 24 hrs by MTT assay. The conditions noted are these: A549, 24 h. In kind it is functional, cell-based.
Assay [4] deals with MCF7. The assay can be described thus: Induction of apoptosis in human MCF7 cells assessed as up regulation of caspase-3 expression at IC50 measured after 48 hrs by ELISA relative to control. The assay is classed as functional.
For assay [5], the system named is SW480. The assay can be described thus: Cytotoxicity against human SW480 cells assessed as reduction in cell viability measured after 72 hrs by MTT assay. In kind it is functional, cell-based. To be noted: SW480, 72 h. (In general: Formazan colour is commonly taken as a measure of viable cells.)
Assay [6] can be described thus: Antioxidant activity assessed as GPx-like activity by measuring oxidation of NADPH to NADP+ by NADPH-reductase coupled assay. In kind it is functional.
In assay [7] the test system is MCF7. The assay can be described thus: Cytotoxicity against human MCF7 cells assessed as reduction in cell viability measured after 72 hrs by MTT assay. The assay is classed as functional, cell-based. The conditions noted are these: MCF7, 72 h.
Assay [8] relates to HeLa. As to the kind of experiment: Cytotoxicity against human HeLa cells assessed as reduction in cell viability measured after 72 hrs by MTT assay. In kind it is functional, cell-based.
Assay [9] deals with MCF7. As to the kind of experiment: Cytotoxicity against human MCF7 cells assessed as reduction in cell viability measured after 48 hrs by MTT assay. In kind it is functional, cell-based. To be noted: MCF7, 48 h.
For assay [10], the system named is MCF7. The assay can be described thus: Induction of apoptosis in human MCF7 cells assessed as up regulation of IL-2 expression at IC50 measured after 48 hrs by ELISA relative to control. In kind it is functional. In general terms: In an ELISA, binding on a coated surface is turned into a signal by an enzyme label.
For assay [11], the system named is A549. The assay can be described thus: cells. The conditions noted are these: Homo sapiens, A549, 48 h.
Description: Cytotoxicity against human A549 cells assessed as reduction in cell viability measured after 48 hrs by MTT assay
Assay [12] has as its system MCF7. As to the kind of experiment: Cytotoxicity against human MCF7 cells assessed as reduction in cell viability measured after 24 hrs by MTT assay. In kind it is functional, cell-based. The conditions noted are these: MCF7, 24 h.
The test system of assay [13] is SW480. The assay can be described thus: Cytotoxicity against human SW480 cells assessed as reduction in cell viability measured after 48 hrs by MTT assay. The assay is classed as functional, cell-based. To be noted: SW480, 48 h.
The test system of assay [14] is HeLa. The assay can be described thus: Cytotoxicity against human HeLa cells assessed as reduction in cell viability measured after 48 hrs by MTT assay. The assay is classed as functional, cell-based.
Assay [15] deals with SW480. The assay can be described thus: Cytotoxicity against human SW480 cells assessed as reduction in cell viability measured after 24 hrs by MTT assay. The assay is classed as functional, cell-based. The conditions noted are these: SW480, 24 h.
Assay [16] concerns HeLa. As to the kind of experiment: Cytotoxicity against human HeLa cells assessed as reduction in cell viability measured after 24 hrs by MTT assay. In kind it is functional, cell-based.
Assay [17] deals with A549. As to the kind of experiment: Cytotoxicity against human A549 cells assessed as reduction in cell viability measured after 72 hrs by MTT assay. The conditions noted are these: A549, 72 h. In kind it is functional, cell-based.
Assay [18] has as its system MCF7. The assay can be described thus: Induction of apoptosis in human MCF7 cells assessed as down regulation of Bcl-2 expression at IC50 measured after 48 hrs by ELISA relative to control. In kind it is functional.

These results are taken from ChEMBL document CHEMBL4765458, “Synthesis and biological evaluation of organoselenium (NSAIDs-SeCN and SeCF) derivatives as potential anticancer agents” (Eur J Med Chem, 2020).

For orientation: inhibition means how much of the control response was suppressed. Broadly, the IC50 is the concentration at which inhibition is half-maximal.

Active and inactive are the calls of the source. No cut-off for these calls is given here. Bounds are passed on as bounds.

Consider `O=C1O[C@H]([C@@H](O)CO)C(O)=C1O`, for which, in [1], the inhibition stood at 92.4%. In assay [2], the deltaA is 295.

As for `CC(C)Cc1ccc(C(C)C(=O)NCCC[Se]C(F)(F)F)cc1` (stereo unspecified), the IC50 in [3] was 9.4 µM; in assay [5] it was 4.2 µM; in assay [7], 2.8 µM; in assay [8], 19.7 µM; in assay [9], 4.3 µM; in assay [11], 15.2 µM. Also, the 50% inhibitory concentration (IC50) in assay [12] worked out at 3.4 µM; in assay [13], 3.3 µM; in assay [14], 17.4 µM; in assay [15] it was 4.9 µM; in assay [16], 11.5 µM; in [17], 18.5 µM. The outcome in assay [4], in [6] and in [10] was Active. For the same compound, the inhibition in assay [1] was 68.7%. In addition, the Activity in assay [18] is listed as above 50%.

Consider `CC(C(=O)NCCC[Se]C(F)(F)F)c1ccc(-c2ccccc2)c(F)c1` (stereo unspecified), for which the IC50 in assay [3] is 14.5 µM; in assay [5] it was 19.5 µM; in [7], 18.5 µM; in assay [8], 14.9 µM; in [9], 17.1 µM; in assay [11], 23.2 µM. In addition, the IC50 in [12] is 12.1 µM; in assay [13], 24.4 µM; in [14], 28.4 µM; in assay [15], 18.3 µM; in [16], 30.2 µM; in assay [17], 35.4 µM. Also, the result in [6] was Active. In assay [1], the inhibition stood at 40.5%.

As for `CC(C)Cc1ccc(C(C)C(=O)NCCC[Se]C#N)cc1` (stereo unspecified), the 50% inhibitory concentration (IC50) in assay [3] is 24.4 µM; in [5], 6.4 µM; in [7], 16.5 µM; in assay [8], 29.3 µM; in assay [9], 14.3 µM; in assay [11] it was 30.2 µM. The concentration for half-maximal inhibition (IC50) is 12.1 µM in assay [12]; 5.3 µM in [13]; 26.3 µM in assay [14]; 8.9 µM in [15]; 13.5 µM in assay [16]; 28.5 µM in assay [17]. The outcome in assay [4], in [6] and in assay [18] was Active. The “fold change (FC)” value in assay [10] turned out to be 1.5. Besides, in [1], the inhibition was found to be 60.8%.

Take `C[C@H](C(=O)NCCC[Se]C(F)(F)F)c1cccc(C(=O)c2ccccc2)c1`: the IC50 stood at 13.1 µM in [3]; 6.5 µM in assay [5]; 9.5 µM in [7]; 28.7 µM in assay [8]; 9.3 µM in [9]; 18.4 µM in assay [11]. For the same compound, the IC50 in assay [12] is 8.6 µM; in assay [13], 7.4 µM; in assay [14], 17.5 µM; in assay [15], 8.2 µM; in [16] it was 19.6 µM; in assay [17] it was 22.6 µM. The outcome in [6] was Active. The inhibition in assay [1] turned out to be 48.4%.

Take `CC(=O)Oc1ccccc1C(=O)NCCC[Se]C#N`: the concentration for half-maximal inhibition (IC50) in assay [3] worked out at 18.4 µM; in [5], 8.2 µM; in assay [7], 10.3 µM; in assay [8] it was 18.3 µM; in assay [9] it was 8.6 µM; in [11] it was 22.6 µM. Moreover, the IC50 in assay [12] came to 6.8 µM; in assay [13] it was 7.4 µM; in assay [14] it was 28.4 µM; in assay [15], 9.3 µM; in [16], 31.4 µM; in [17], 22.3 µM. The outcome in assay [4], in assay [6], in assay [10] and in [18] was Active. For the same compound, in assay [1], the inhibition worked out at 52.1%.

Take `CC(=O)Oc1ccccc1C(=O)NCCC[Se]C(F)(F)F`: the IC50 came out at 16.4 µM in assay [3]; 7.8 µM in assay [5]; 4.4 µM in [7]; 15.4 µM in assay [8]; 4.2 µM in assay [9]; 18.6 µM in assay [11]. The concentration for half-maximal inhibition (IC50) in assay [12] stood at 3.5 µM; in [13], 7.2 µM; in assay [14], 26.3 µM; in assay [15], 8.2 µM; in assay [16] it was 28.7 µM; in assay [17] it was 17.3 µM. In assay [4], the “fold change (FC)” value is given as 5. The result in assay [6] and in assay [10] was Active. Moreover, the inhibition in assay [1] was 72.5%. Also, the Activity in assay [18] is above 50%.

With `Cc1cccc(Nc2ccccc2C(=O)NCCC[Se]C#N)c1C`, the 50% inhibitory concentration (IC50) in assay [3] was 37.3 µM; in [5] it was 13.2 µM; in [7], 7.9 µM; in assay [8] it was above 50 µM; in [9], 11.2 µM; in [11], above 50 µM. Moreover, the IC50 in assay [12] is 18.5 µM; in [13] it was 9.7 µM; in [14], 34.3 µM; in [15], 14.4 µM; in assay [16], 26.5 µM; in assay [17] it was above 50 µM. For the same compound, in assay [1], the inhibition worked out at 26.5%.
